Results from BindingDB's records for patent US20260049084 (Gossamer Bio Services, 2026).

Key:
[1] = biological target: T1, Ectonucleotide pyrophosphatase/phosphodiesterase family member 1 (Homo sapiens, UniProt P22413); experiment: ENPP1 cGAMP Biochemical Assay
T1 sequence (P22413 whole entry): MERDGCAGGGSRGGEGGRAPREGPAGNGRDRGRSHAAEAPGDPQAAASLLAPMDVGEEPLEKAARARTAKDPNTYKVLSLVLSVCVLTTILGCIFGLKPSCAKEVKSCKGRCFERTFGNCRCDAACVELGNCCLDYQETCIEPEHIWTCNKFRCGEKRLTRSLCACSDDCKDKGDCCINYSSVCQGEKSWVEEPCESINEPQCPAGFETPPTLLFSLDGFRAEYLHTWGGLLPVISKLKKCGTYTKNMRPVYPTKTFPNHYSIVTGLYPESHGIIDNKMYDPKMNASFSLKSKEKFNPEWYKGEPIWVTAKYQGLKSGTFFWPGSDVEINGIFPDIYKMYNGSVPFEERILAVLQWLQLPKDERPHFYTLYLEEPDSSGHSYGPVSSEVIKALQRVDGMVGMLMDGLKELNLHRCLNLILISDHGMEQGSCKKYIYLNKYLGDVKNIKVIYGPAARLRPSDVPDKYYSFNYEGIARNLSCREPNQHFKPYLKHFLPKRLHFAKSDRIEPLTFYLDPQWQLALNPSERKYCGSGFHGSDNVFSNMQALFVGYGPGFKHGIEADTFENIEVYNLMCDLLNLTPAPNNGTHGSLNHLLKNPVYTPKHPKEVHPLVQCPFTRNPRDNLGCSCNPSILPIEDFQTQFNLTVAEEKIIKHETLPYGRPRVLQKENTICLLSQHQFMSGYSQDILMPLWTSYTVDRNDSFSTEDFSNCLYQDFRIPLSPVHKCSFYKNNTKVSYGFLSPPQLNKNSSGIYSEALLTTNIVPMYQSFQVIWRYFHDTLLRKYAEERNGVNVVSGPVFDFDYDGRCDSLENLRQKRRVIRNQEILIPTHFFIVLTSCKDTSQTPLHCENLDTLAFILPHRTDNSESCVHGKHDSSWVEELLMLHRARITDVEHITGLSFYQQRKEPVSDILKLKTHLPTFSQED
Experimental: Compounds were added to 384 well Proxiplate (PerkinElmer, Waltham MA) at 100 nl/well from DMSO stocks using Echo (Labcyte, San Jose CA). Recombinant human ENPP1 protein (R&D Systems, Minneapolis MN) was prepared in assay buffer (50 mM Tris pH7.5, 1 mM TCEP pH7.0, 2 mM MgCl2 and 0.005% Tween20) and added at 10 μl/well. The plate was sealed, centrifuged at 1000 rpm for 1 minute and incubated at room temperature for 30 minutes before 5 μl substrate 2′3′-cGAMP (R&D Systems, Minneapolis MN) in assay buffer was added to each well to a final concentration of 0.5 nM ENPP1 and 1000 nM 2′3′-cGAMP. The plate was sealed and centrifuged at 1000 rpm for 1 minute again. After incubation at 25° C. for 60 minutes, Terbium labelled AMP/GMP antibody and AMP/GMP HiLyte647 Tracer (BellBrook Labs, Fitchburg WI) in detection buffer (50 mM Tris pH7.5, 20 mM EDTA and 0.1% Prionex) were added to the reaction mixture to a final concentration of 2 nM (5 μl/well). The assay plate was incubated at room temperature for 120 minutes. TR-FRET signal was detected using Envision (PerkinElmer, Waltham MA).

[2] = biological target: T2, Ectonucleotide pyrophosphatase/phosphodiesterase family member 3 (Homo sapiens, UniProt O14638); experiment: ENPP3 cGAMP Biochemical Assay
T2 sequence (O14638 whole entry): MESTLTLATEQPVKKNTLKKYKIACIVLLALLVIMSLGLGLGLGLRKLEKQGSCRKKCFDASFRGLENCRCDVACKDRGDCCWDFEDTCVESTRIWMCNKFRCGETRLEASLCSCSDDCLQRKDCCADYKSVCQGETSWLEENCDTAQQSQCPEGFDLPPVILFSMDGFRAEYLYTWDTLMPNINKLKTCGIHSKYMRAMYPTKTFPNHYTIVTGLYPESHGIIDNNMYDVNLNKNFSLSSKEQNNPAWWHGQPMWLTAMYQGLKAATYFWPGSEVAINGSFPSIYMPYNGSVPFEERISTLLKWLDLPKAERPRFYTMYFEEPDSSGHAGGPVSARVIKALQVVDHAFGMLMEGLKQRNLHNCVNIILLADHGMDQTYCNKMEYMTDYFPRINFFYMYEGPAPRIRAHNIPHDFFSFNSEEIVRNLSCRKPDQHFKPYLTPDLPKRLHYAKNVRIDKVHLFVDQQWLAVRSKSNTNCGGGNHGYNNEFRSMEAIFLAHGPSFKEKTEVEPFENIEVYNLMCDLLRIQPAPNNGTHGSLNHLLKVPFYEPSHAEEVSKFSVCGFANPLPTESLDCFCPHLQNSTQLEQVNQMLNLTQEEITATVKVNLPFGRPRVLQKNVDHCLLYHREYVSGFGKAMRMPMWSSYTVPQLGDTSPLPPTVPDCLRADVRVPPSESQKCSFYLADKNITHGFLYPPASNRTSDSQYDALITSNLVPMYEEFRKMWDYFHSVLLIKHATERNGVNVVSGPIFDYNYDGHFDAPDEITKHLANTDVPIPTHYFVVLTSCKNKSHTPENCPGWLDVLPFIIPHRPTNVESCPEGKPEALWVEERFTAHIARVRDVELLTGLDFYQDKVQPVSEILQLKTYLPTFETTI
Experimental: Compounds were added to 384 well Proxiplate (PerkinElmer, Waltham MA) at 100 nl/well from DMSO stocks using Echo (Labcyte, San Jose CA). Recombinant human ENPP3 protein (Acro Biosystems, Newwark DE) was prepared in assay buffer (50 mM Tris pH7.5, 1 mM TCEP pH7.0, 2 mM MgCl2, 2 mM CaCl2), 2 mM ZnCl2 and 0.005% Tween20) and added at 2 μl/well. […] The plate was sealed and centrifuged at 1000 rpm for 1 minute again. […] The assay plate was incubated at room temperature for 120 minutes. TR-FRET signal was detected using Envision (PerkinElmer, Waltham MA).

[3] = biological target: Carbonic anhydrase 1 (Homo sapiens, UniProt P00915); experiment: Carbonic Anhydrase 1 Enzymatic Assay
Experimental: (§1) Test compound and/or vehicle was preincubated with carbonic anhydrase I enzyme (15 μg/ml) isolated from human erythrocyte in reaction buffer (50 mM MOPS solution pH 7.5) for 15 minutes at 25° C. The reaction was initiated by addition of 500 μM 4-nitrophenyl acetate and incubated for 30 minutes. The plate was read on a spectrophotometer (Absorbance: 400 nm)

[4] = biological target: Carbonic anhydrase 2 (Homo sapiens, UniProt P00918); experiment: Carbonic Anhydrase 2 Enzymatic Assay
Experimental: as §1, with “II” for “I”, “nm).” for “nm)”

Carbonic anhydrase 1, sequence (P00915 whole entry): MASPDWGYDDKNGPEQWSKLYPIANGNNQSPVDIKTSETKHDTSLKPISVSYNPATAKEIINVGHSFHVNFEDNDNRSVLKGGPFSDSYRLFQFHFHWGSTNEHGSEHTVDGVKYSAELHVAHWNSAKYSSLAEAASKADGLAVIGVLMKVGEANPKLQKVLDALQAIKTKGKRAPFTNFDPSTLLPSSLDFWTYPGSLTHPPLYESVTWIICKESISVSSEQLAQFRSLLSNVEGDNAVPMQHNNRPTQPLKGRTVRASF

| IC50 [1] [nM] | IC50 [2] [nM] | IC50 [3] [nM] | IC50 [4] [nM] | SMILES |
| --- | --- | --- | --- | --- |
| < 10 | > 1000 |  |  | CCn1nc(Cl)c2c(NCC3CCN(S(=N)(=O)CCNC(C)=O)CC3)ccnc21 (centres undefined) [US20260049084, Compound 14K] |
|  |  | > 1000 | > 1000 | CN=[S@](N)(=O)N1CCC(CNc2ccnc3c2c(Cl)nn3CC#N)CC1 [US20260049084, Compound 15G] |
